From patent publication US20080306038A1, “Compositions and Methods for Modulating Inflammation Using Fluoroquinolones” (priority 2007, published 2008)

Columns and labels:
Format in all cases: cell-based, human
IL-12p40 = assay: LPS-stimulated IL-12p40 production in THP-1 monocytes (multiplex Luminex); set-up: key to Inhibition of LPS-stimulated IL-12p40 production: “X” signifies significant inhibition at a particular concentration; settings: 18 hours
Protocol: (§1) Human THP-1 monocytes (ATCC TIB 202) were purchased from American Type Culture Collection (Manassas, Va.) and maintained in RPMI 1640 medium (Invitrogen, Carlsbad, Calif.) supplemented with 10% fetal bovine serum (“FBS”, Invitrogen, Carlsbad, Calif.), 100 U/mL of penicillin (Invitrogen, Carlsbad, Calif.), and 100 μg/mL of streptomycin (Invitrogen, Carlsbad, Calif.) at 37° C. in a humidified incubator with 5% CO2. THP-1 cells were pre-cultured in RPMI 1640 medium containing 10% dialyzed serum for 24 h. […] Each treatment was performed in triplicate.
(§2) Samples were analyzed using multiplex bead technology, which utilizes microspheres as the solid support for immunoassays and allows the analysis of all cytokines from each sample (D. A. Vignali, J. Immunol. Methods, Vol. 243, 243-255 (2000)). Sixteen cytokines were measured according to the manufacturer's instructions. Briefly, 50 μL of medium samples were incubated with antibody-coated capture beads overnight at 4° C. Washed beads were further incubated with biotin-labelled anti-human cytokine antibodies for 2 h at room temperature followed by incubation with streptavidin-phycoerythrin for 30 min. Samples were analyzed using Luminex 200™ (Luminex, Austin, Tex.) and Beadview software v1.0 (Upstate Cell Signaling Solutions, Temecula, Calif.). Standard curves of known concentrations of recombinant human cytokines were used to convert fluorescence units (median fluorescence intensity) to cytokine concentration in pg/mL. Only the linear portions of the standard curves were used to quantify cytokine concentrations, and in instances where the fluorescence reading exceeded the linear range of the standard curve, an appropriate dilution was performed to ensure that the concentration was in the linear portion of the curve.
(§3) All cytokine concentrations (pg/mL) were expressed as mean ±standard deviation. Statistical analysis comparing effects of treatment across groups was performed using a one-way ANOVA with a Dunnett's post-hoc comparison test using either vehicle control or LPS treatment as references. For all assays, p≦0.05 was predetermined as the criterion of statistical significance.

IL-1α = assay: LPS-stimulated IL-1α production in THP-1 monocytes (multiplex Luminex); set-up: key to Inhibition of LPS-stimulated IL-1α production: “X” signifies significant inhibition at a particular concentration; settings: 18 hours, THP-1 monocytes
Protocol: as §1, §2, §3

IL-1β = assay: LPS-stimulated IL-1β production in THP-1 monocytes (multiplex Luminex); set-up: key to Inhibition of LPS-stimulated IL-1β production: “X” signifies significant inhibition at a particular concentration; settings: 18 hours, THP-1 monocytes
Protocol: as §1, §2, §3

IL-1ra = assay: LPS-stimulated IL-1ra production in THP-1 monocytes (multiplex Luminex); set-up: key to Inhibition of LPS-stimulated IL-1ra production: “X” signifies significant inhibition at a particular concentration; settings: 18 hours, THP-1 monocytes
Protocol: as §1, §2, §3

IL-6 = assay: LPS-stimulated IL-6 production in THP-1 monocytes (multiplex Luminex); set-up: key to Inhibition of LPS-stimulated IL-6 production: “X” signifies significant inhibition at a particular concentration; settings: 18 hours, THP-1 monocytes
Protocol: as §1, §2, §3

IL-8 = assay: LPS-stimulated IL-8 production in THP-1 monocytes (multiplex Luminex); set-up: key to Inhibition of LPS-stimulated IL-8 production: “X” signifies significant inhibition at a particular concentration; settings: 18 hours, THP-1 monocytes
Protocol: as §1, §2, §3

IP-10 = assay: LPS-stimulated IP-10 production in THP-1 monocytes (multiplex Luminex); set-up: key to Inhibition of LPS-stimulated IP-10 production: “X” signifies significant inhibition at a particular concentration; settings: 18 hours, THP-1 monocytes
Protocol: as §1, §2, §3

MIP-1α = assay: LPS-stimulated MIP-1α production in THP-1 monocytes (multiplex Luminex); set-up: key to Inhibition of LPS-stimulated MIP-1α production: “X” signifies significant inhibition at a particular concentration; settings: 18 hours, THP-1 monocytes
Protocol: as §1, §2, §3

VEGF = assay: LPS-stimulated VEGF production in THP-1 monocytes (multiplex Luminex); set-up: key to Inhibition of LPS-stimulated VEGF production: “X” signifies significant inhibition at a particular concentration; settings: 30 μg/mL compound + 10 μg/mL LPS, 18 hours, THP-1 monocytes
Protocol: as §1, §2, §3

[1] = 10 μg/mL compound + 10 μg/mL LPS
[2] = 30 μg/mL compound + 10 μg/mL LPS

COc1c(N2C[C@@H]3CCCN[C@@H]3C2)c(F)cc2c(=O)c(C(=O)O)cn(C3CC3)c12 [Moxifloxacin, moxifloxacin, reference compound]
10 µg/mL: Concentration at which a significant inhibitory effect was observed for IL-1ra (IL-1ra; LPS-induced) | Concentration at which a significant inhibitory effect was observed for IL-6 (IL-6; LPS-induced)
X: Inhibition of LPS-stimulated IL-12p40 production (IL-12p40; 1 μg/mL compound + 10 μg/mL LPS) | Inhibition of LPS-stimulated IL-12p40 production (IL-12p40; [1]) | Inhibition of LPS-stimulated IL-12p40 production (IL-12p40; [2]) | Inhibition of LPS-stimulated IL-1α production (IL-1α; [2]) | Inhibition of LPS-stimulated IL-1β production (IL-1β; [2]) | Inhibition of LPS-stimulated IL-1ra production (IL-1ra; [1]) | Inhibition of LPS-stimulated IL-1ra production (IL-1ra; [2]) | Inhibition of LPS-stimulated IL-6 production (IL-6; [1]) | Inhibition of LPS-stimulated IL-8 production (IL-8; [2]) | Inhibition of LPS-stimulated IP-10 production (IP-10; [2]) | Inhibition of LPS-stimulated MIP-1α production (MIP-1α; [2]) | Inhibition of LPS-stimulated VEGF production (VEGF)
30 µg/mL: Concentration at which a significant inhibitory effect was observed for IL-1α (IL-1α; LPS-induced) | Concentration at which a significant inhibitory effect was observed for IL-1β (IL-1β; LPS-induced) | Concentration at which a significant inhibitory effect was observed for IL-8 (IL-8; LPS-induced) | Concentration at which a significant inhibitory effect was observed for IP-10 (IP-10; LPS-induced) | Concentration at which a significant inhibitory effect was observed for MIP-1α (MIP-1α; LPS-induced)
1 µg/mL: Concentration at which a significant inhibitory effect was observed for IL-12p40 (IL-12p40; LPS-induced)
